In patent publication US20210402016A1, “RADIOLABELED BOMBESIN-DERIVED COMPOUNDS FOR IN VIVO IMAGING OF GASTRIN-RELEASING PEPTIDE RECEPTOR (GRPR) AND TREATMENT OF GRPR-RELATED DISORDERS” (Provincial Health Services Authority, priority 2018, published 2021):
“And” between values parts separate entries of the source, which are not always exact repeats. Identical values can stand only once.

Experiments:
PC-3 cells = test: Fluorometric calcium release assay (FLIPR Calcium 6); format: cell-based, human
Experimental: Calcium release assays were performed using a FLIPR Calcium 6 assay kit (Molecular Devices) according to published procedures (26). Briefly, 5×10^4 PC-3 cells were seeded overnight in 96-well clear bottom black plates. The growth medium was replaced with loading buffer containing a calcium-sensitive dye and incubated for 30 min at 37° C. The plate was placed in a FlexStation 3 microplate reader (Molecular Devices) and baseline fluorescent signals were acquired for 15 sec. […] The relative fluorescence unit (RFU=Max-Min) was used to determine the agonistic/antagonistic properties.

human GRPR = biological target: T1, human GRPR (Homo sapiens, UniProt P30550); test: Competition binding assay, displacement of [^125I-Tyr^4]Bombesin on PC-3 cells
T1 construct: endogenous in cells; host or cells: PC-3 human prostate adenocarcinoma cells (whole cells)
Experimental: Cells were incubated 30-60 min at 37° C.

[1] = tested on: nude mice bearing PC-3 tumors; conditions: Dalm et al.; cited from earlier work
[2] = tested on: PC-3 xenograft bearing mice; conditions: PET/CT, PC-3 tumor-bearing mice
Experimental: Animal experiments were approved by the Animal Ethics Committee of the University of British Columbia. Male NOD.Cg-Rag1^tm1Mom∥2rg^tm1Wjl/SzJ (NRG) mice obtained from an in-house colony were subcutaneously inoculated with 5×10^6 PC-3 cells (100 μL; 1:1 PBS/Matrigel), and tumors were grown for 2 to 3 weeks.
Mice were sedated and scanned (Siemens Inveon microPET/CT) with body temperature maintained by heating pad. […] PET data were acquired in list mode, reconstructed using 3-dimensional ordered-subsets expectation maximization (2 iterations) followed by a fast maximum a priori algorithm (18 iterations) with CT-based attenuation correction. Images were analyzed using the Inveon Research Workplace software (Siemens Healthineers).

[3] = tested on: PC-3 xenograft bearing mice; test: Biodistribution in PC-3 tumor-bearing NRG mice (Example 1); format: in vivo
Experimental: The mice were sacrificed by CO2 inhalation at 30 min, 1 h, and 2 h p.i. Blood was collected by cardiac puncture. Organs/tissues were harvested, rinsed with PBS, blotted dry, and weighed. The activity in tissues was assayed by gamma counter and expressed as the percentage injected dose per gram of tissue (% ID/g).

GRPR = biological target: T2, GRPR (Mus musculus, UniProt P21729); conditions: determined using Swiss 3T3 cells; read-out: Reported Ki value; cited from earlier work
T2 construct: the latter value was determined using Swiss 3T3 cells (17); host or cells: Swiss 3T3 cells
T2 sequence (P21729 whole entry): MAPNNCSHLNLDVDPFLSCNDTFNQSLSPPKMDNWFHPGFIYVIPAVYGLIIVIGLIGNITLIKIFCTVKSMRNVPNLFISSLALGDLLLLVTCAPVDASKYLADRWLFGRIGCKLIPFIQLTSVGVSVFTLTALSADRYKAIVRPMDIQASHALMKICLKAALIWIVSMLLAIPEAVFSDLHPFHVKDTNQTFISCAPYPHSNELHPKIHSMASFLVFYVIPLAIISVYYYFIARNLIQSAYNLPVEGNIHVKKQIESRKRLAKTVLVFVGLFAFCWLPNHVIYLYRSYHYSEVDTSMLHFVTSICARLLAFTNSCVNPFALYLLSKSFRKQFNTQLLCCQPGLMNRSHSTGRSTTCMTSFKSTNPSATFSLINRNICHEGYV

T1 sequence (P30550 whole entry): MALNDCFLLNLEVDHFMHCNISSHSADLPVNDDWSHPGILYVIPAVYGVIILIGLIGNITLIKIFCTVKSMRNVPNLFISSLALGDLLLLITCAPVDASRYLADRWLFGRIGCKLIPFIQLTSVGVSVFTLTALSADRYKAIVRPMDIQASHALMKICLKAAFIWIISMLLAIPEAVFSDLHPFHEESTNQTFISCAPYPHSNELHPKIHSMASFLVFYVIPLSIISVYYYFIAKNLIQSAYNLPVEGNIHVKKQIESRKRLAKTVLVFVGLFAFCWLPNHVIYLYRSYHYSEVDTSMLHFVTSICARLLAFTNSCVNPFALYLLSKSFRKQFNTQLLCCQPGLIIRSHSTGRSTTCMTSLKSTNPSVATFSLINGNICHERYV

Q: With `Nc1ncnc2c1ncn2[C@@H]1O[C@H](COP(=O)(O)OP(=O)(O)OP(=O)(O)O)[C@@H](O)[C@H]1O` [ATP, adenosine triphosphate, reference compound] as the molecule, how does the Intracellular calcium release (PC-3 cells; 50 nM) read?
A: The Intracellular calcium release was 511±45.5 RFUs.

Q: With `CC(C)CC(CC(C)C)NC(=O)[C@H](Cc1c[nH]cn1)NC(=O)CNC(=O)[C@@H](NC(=O)[C@H](C)NC(=O)[C@H](Cc1c[nH]c2ccccc12)NC(=O)[C@H](CCC(N)=O)NC(=O)[C@@H](Cc1ccccc1)NC(=O)COCC(=O)Nc1ccc(CNC(=O)CN2CCN(CC(=O)O)CCN(CC(=O)O)CCN(CC(=O)O)CC2)cc1)C(C)C` [Ga-NeoBOMB1, reference compound] as the molecule, how does the Ki (human GRPR) read?
A: The Ki was 1.71 ± 0.28 nM.

Q: For `CC(C)CC(CC(C)C)NC(=O)[C@H](Cc1cnc[nH]1)NC(=O)CNC(=O)[C@@H](NC(=O)[C@H](C)NC(=O)[C@H](Cc1c[nH]c2ccccc12)NC(=O)[C@H](CCC(N)=O)NC(=O)[C@@H](Cc1ccccc1)NC(=O)COCC(=O)Nc1ccc(CNC(=O)CN2CCN(CC(=O)O)CCN(CC(=O)O)CCN(CC(=O)O)CC2)cc1)C(C)C` [^68Ga-NeoBOMB1, metal not drawn, reference compound], which Uptake in pancreas [1] is on record?
A: Its Uptake in pancreas is roughly 15 % ID/g.

Q: What about the Uptake in tumor [1] of the same molecule?
A: Its Uptake in tumor is roughly 10 % ID/g.

Q: And the “Excretion / clearance pathway” value [2]?
A: The value was “both the hepatobiliary and renal pathways”.

Q: And the “Biodistribution PC-3 Tumor, Mean” value ([3]; 30 min p.i.)?
A: The value was 9.60±0.99 % ID/g.

Q: What about the “Biodistribution Pancreas, Mean” value ([3]; 30 min p.i.) of the same molecule?
A: The value was 95.7±12.7 % ID/g.

Q: What about the “Biodistribution PC-3 Tumor, Mean” value ([3]; 60 min p.i.) of the same molecule?
A: The value was 9.83±1.48 % ID/g.

Q: What about the “Biodistribution Pancreas, Mean” value ([3]; 60 min p.i.) of the same molecule?
A: Its value is 122±28.4 % ID/g and 123±28.4 % ID/g.

Q: And the “Biodistribution Blood, Mean” value ([3]; 120 min p.i.)?
A: The value was 0.45±0.10 % ID/g.

Q: And the “Biodistribution PC-3 Tumor, Mean” value ([3]; 120 min p.i.)?
A: The value was 12.1±3.72 % ID/g.

Q: What about the “Biodistribution Pancreas, Mean” value ([3]; 120 min p.i.) of the same molecule?
A: Its value is 139±26.8 % ID/g.

Q: Which Ki (GRPR) does the source give for “D-Phe-Gln-Trp-Ala-Val-Gly-His-Leu-L-Tac-NH2 [RC-3950-II]” here?
A: Its Ki is 0.078 nM.

Q: Which Intracellular calcium release (PC-3 cells; 5 nM) does the source give for “[D-Phe^6, Leu-NHEt^13, des-Met^14]Bombesin(6-14) [reference compound]” here?
A: The Intracellular calcium release was 22.3±16.8 RFUs.

Q: What about the Intracellular calcium release (PC-3 cells; 50 nM) of the same molecule?
A: Its Intracellular calcium release is 42.0±20.4 RFUs.
